Read-outs that look alike come from different tables or passages of the source.
Key:
[1] = test system: JTNT1 tobacco cell suspension cultures; experiment: Single cell production, growth and viability of JTNT1 suspension with microtubule inhibitors in 24-well plates, glycerol medium
Text: JTNT1 Tobacco Suspension Cultures. […] Furthermore, Suc stabilizes preformed microtubules, making an examination of the effects of MTIs on preformed microtubules unfeasible. In addition, sucrose increases solution viscosity substantially, and tubulin polymerization is altered at least in part by slowed dimer and polymer diffusion rates. Thus, it was important to have low or no sucrose in medium where the single cell production. Thus, a new JTNT1 line habituated in Glycerol was developed for this study.
Each of the 24 well contained 1 ml of JTNT1 suspension. The 24-well plates were kept on an Innova 4900 Multi Environmental Shaker with special clamps and harnesses to allow stacking of plates up to 6 plates high. The plates were rotated at a speed of 130 rpm and 25° C. in dark.
Single Cell Production. Each compound was dissolved in dimethyl sulfoxide (DMSO) to provide 0.5 Molar stock solutions. One ml of JTNT1 suspension (1 ml PCV/20 ml tobacco media) was added to each well of the 24 well plates. To each well an individual chemical was added to achieve the desired concentrations (at 1 μM, 3 μM, and 10 μM). The cultures were allowed to grow for 7 days on the Innova Shaker. Each day turbidity measurements was taken on each well using a SpectraMax M2^e by Molecular devices (set at 600 absorbance, with 5 readings taken per well). On day 7, cells were observed using the Leica 5000 inverted confocal microscope for formation of single cells and cell viability.

NT1 tobacco cell growth = experiment: Effects of MTI on NT1 tobacco cell growth and single cell production in glycerol medium; type: cell-based
Protocol: The effects of Microtubule inhibitors (MTI) on tobacco cell growth in suspension culture were examined. […] Both the control and MTI-containing flasks contained a final concentration of 0.5-0.1% (v/v) DMSO. The growth of these chemicals was evaluated in EP12 medium for BY2 cells and NT1B medium for BTI-NT1 cells were the carbon source is substituted with 3% glycerol. The response of these cells was compared with the same medium composition but with 3% sucrose as the Carbon source.

[2] = test system: BY2, NT1, Petite Havana (PH) and Xanthi (Xan) and Jimson Weed (JM) Suspension Cells; experiment: Effects of tubulin inhibitors on growth and cell separation, all suspension types tested; type: cell-based
Text: BY2 suspension-cultured cells were obtained from Japan tobacco and maintained in LSBY2 medium in a 7 day cycle. Jimsonweed suspension and Pettite Havana tobacco suspensions were initiated from callus initiated at DAS and Xanthi suspensions were procured as a sample from Professor Jack Widholm from UIUC, IL. JT-NT1 suspension cells, obtained from Washington University that are maintained in NT1B medium in 7 day cycle were used only for the pectin degradation enzyme study to separate the cells into single cells. The cells were cultured in shake flasks at 25-28° C. in dark on orbital shakers at 150 rpm. […] Stock concentrations of both the tubulin polymerization inhibitors used in this investigation were dissolved in DMSO to prepare a 0.5 M stock solution. The concentration tested for the pectinase and pectolyase enzymes were in the range of 0.0005% to 0.005%. […] NT-1 cells were originally developed from Nicotiana tabacum L. cv. bright yellow 2.
Cell expansion and separation were observed by light microscopy (with Nomarski and dark field optics). Spherical cells and single cells were counted by using a hemacytometer to determine the degree of cell expansion and separation, respectively. […] In order to determine the presence of the cell wall in this single cell cultures optical brightener was used. Calcafluor obtained from Sigma, which is a specific fluorescent dye for cellulose is used in this study, and the cellulose-Calcafluor complexing was observed by fluorescence microscopy (Zeiss Photomicroscope). […] Prior to use, the Calcafluor stain was centrifuged at 15,000 g for 2 min. to remove precipitates. A drop or two of the Calcafluor solution was added to the separated cells.

[3] = test system: Carrot suspension cultures; experiment: Single cell production from carrot suspension cultures; set-up: colony growth after plating single cells on M-medium: dose or concentration left out as unconfirmed
Protocol: Carrot callus cultures have been initiated from the in vitro maintained Daucus carota L. ssp. sativus cv Sativa plants. Isolated leaf petiole explants were cultured on semi solid medium (Mashayekhi-Nezamabadi, 2000). Suspension cultures were initiated from the callus by transferring 50 mg of friable callus in 1.5 ml of LSBY2 medium (Appendix I) in 24 micro well plate. The fastest growing suspensions were then transferred to flasks with 1 ml suspension in 35 ml LSBY2 liquid medium. The cultures were maintained in diffused light in a 7 day sub culture cycle.
A 1.5-ml diluted single cell cultures were plated on M-medium (Appendix II) in 15×100 Petri-plates and spread out using the loop. Untreated carrot suspension aggregates were also diluted to the same density and plated similarly to compare the growth responses between these cultures.
LSBY2 medium consists of Murashige and Skoog macro and micro-salts (Murashige and Skoog 1962) supplemented with 30 g sucrose (w/v), 100 mg/l myoinositol, 200 mg/l KH2PO4, 1 mg/l thiamine and […] 2,4-dichlorophenoxyacetic acid. The medium is adjusted pH 5.8 before autoclaving at 120° C. Suspension volume at the 7th day of culture, at stationary phase was used to initiate cultures. A 1-ml volume of carrot suspension inoculums is transferred into 50 ml LSBY2 medium and then the cultures were placed on shakers at 150 rpm in the dark at 28° C. The MTI compounds used were added along with the fresh medium at the culture initiation cycle.
A regenerable carrot cryopreserved line (D2-40-018) was thawed and cultured in Linsmeier-Skoog (LS) medium (Nagata, T., Nemoto, Y., and Hasezawa, S. (1992) Int. Rev. Cyto 132, 1-30). Medium salts were purchased from PhytoTechnology Laboratories, Catalog #L689. An actively growing suspension line was established within a week, and the maintenance line was sub-cultured by transferring 2 ml PCV to 58 ml of LS BY2 suspension medium at 28° C. on an orbital shaker (Innova-3300) at 125 rpm under diffused light on a 7 day culture cycle.

Structure (SMILES): CCOC(=O)COc1nn(-c2ccccc2)c(-c2ccccc2)c1Cl [DAS-PMTI-1]
- biomass versus respective controls ([1]; 1 uM, sucrose or glycerol medium): did not reduce the biomass of the cells significantly
- concentrations causing inhibition of mitosis, and cell death (NT1 tobacco cell growth): over 100 nM
- threshold of tobacco cell growth inhibition (NT1 tobacco cell growth): ~50 nM
- micro-nuclei in single cells (microscopic observations) (NT1 tobacco cell growth; 25 nM): did not show the presence of micro-nuclei
- fresh weights versus controls during the stationary phase (NT1 tobacco cell growth; 25 nM (sentence ends with 50 nM), 3% glycerol): slightly greater
- growth rate of the cells (NT1 tobacco cell growth; 25 nM, over a period of 10 days): not lowering the growth rate
- effect on growth (NT1 tobacco cell growth; 0.5-1.0 mM): complete inhibition and cell death
- time to complete inhibition and cell death (NT1 tobacco cell growth; 0.5-1.0 mM, from culture initiation): ≤ 3 days
- concentration effective for the production of single cells (NT1 tobacco cell growth; glycerol as total carbon source, NT1 cells): 0.005 to 0.025 µM
- potency relative to colchicine in affecting the growth of the cultures [2]: 100-1000 ×
- cell growth ([2]; 0.5 mM): affected very significantly
- cell death ([2]; 0.5 mM, after 7 days of treatment): considerable cell death
- cell segregation ([2]; all the cell suspension types tested): partial segregation of cells with general spherical shape
- character of single cell production [3]: assorted cell shapes

Structure (SMILES): COc1cc2c(c(OC)c1OC)-c1ccc(OC)c(=O)cc1[C@@H](NC(C)=O)CC2 [Colchicine]
- concentration necessary to produce single cells, lower end of range [1]: ≥ 50 µM
- concentration necessary to produce single cells, upper end of range [1]: ≤ 2 mM
- increase in diameter of single cells ([1]; NT1B medium with 3% glycerol): 5 fold
- concentration effective for the production of single cells (NT1 tobacco cell growth): 250 to 500 µM
- cell expansion and separation ([2]; 0.5 mM colchicine, all the other cell suspensions tested): partially occurred
- character of single cell production [3]: homogenous production of single cells
- time of single cell production ([3]; 1 mM): 3 to 7 days
- nuclear ploidy of single cells ([3]; 1 mM, 14-21 days of continuous treatments): nuclear polyploidy
- viability by fluorescein diacetate stain ([3]; 1 mM, 4 days and 11 days): very active and viable
- frequency of nuclear polyploidy ([3]; 1 mM, cultures up to 14 days): < 1%
- nuclei of super single cells ([3]; 1 mM, up to 28 days): extensive lobed nuclei
- colony growth after plating single cells on M-medium ([3]; 7 days in colchicine, 4 weeks growth in the dark): several discrete colonies

— patent US8206983B2, “In vitro methods for the induction and maintenance of plant cell lines as single suspension cells with intact cell walls” (Dow AgroSciences, LLC., priority 2006, dated 2012)
